# Data reported in US20120172375A1, “COMPOUNDS AND METHODS OF PROMOTING OLIGODENDROCYTE PRECURSOR DIFFERENTIATION” (priority 2008, published 2012).
# “Also recorded” adds a separate entry of the source.
# Experiments:
# [1] = test system: oligodendrocyte progenitors; test: BrdU incorporation, proliferation of oligodendrocyte progenitors; assay type: cell-based, mouse; settings: 10 nM, 48 h; Average±SEM; control 26.3±3.2; not statistically significant
# Procedure: A feasible effect of small molecules on oligodendrocyte progenitor cells is the induction of proliferation. We studied this possibility by treating cultures of oligodendrocyte progenitors, previously exposed to compounds A, A-7 and B (10 nM, 48 h) with BrdU (Bromodeoxyuridine, 10 μM added 24 hrs before the end of the treatment) and posterior immunostaining to detect BrdU positive cells. This is a well established method to determine cell division and proliferation by incorporation of the […]. After counting BrdU positive oligodendrocytes versus total cells in three independent experiments we observed a slight tendency of increased proliferation in cells treated with compounds A, A-7 or B. However, there were not statistically significant differences between treated and control cells (control: 26.3±3.2; compound A: 29.2±4.0; compound A-7: 28,9±2.1; compound B: 27.6±6.7; Values are represented as Average±SEM).
# Akt = Akt activity in cell extracts of oligodendrocyte precursors (phosphorylation of Akt substrate GSKα/β); assay type: cell-based; settings: 10 μM, 48 h
# Description: Oligodendrocyte precursor differentiation requires the activation of a complex, highly controlled machinery that signals cells to stop migrating/proliferating and start extending processes and producing myelin components. A number of inducers and intracellular mediators of this process have been identified in vitro and in viva. […] Therefore, we studied whether our selected small molecules induced Akt signaling in oligodendrocyte precursors. We analyzed Akt activity in cell extracts of oligodendrocyte precursors treated with selected compounds (10 μM, 48 h), as determined by phosphorylation of Akt substrate GSKα/β.
# [2] = test system: oligodendrocyte precursors; test: Oligodendrocyte precursor maturation after pre-incubation with PI3K, mTOR or Akt inhibitors (MBP immunostaining); assay type: cell-based; settings: 48 h treatment; for effect of Akt inhibitor on compound-induced differentiation: Akt 1/2 inhibitor 1 μM added 1 hr before; for effect of PI3K inhibition on compound-induced oligodendrocyte precursor maturation: wortmannin 0.1 μM added 1 hr before
# Procedure: Akt signaling has been extensively studied, and activation of phosphatidyl-inositol-3-kinase (PI3K) is generally accepted as a canonical upstream Akt activator. Downstream targets of Akt have also been identified and those include GSK, mTOR, p70SK, ASK amongst many others. In order to determine the relevance of […], signaling in the phosphorylation of Akt induced by compounds A and B and possible downstream targets of phosphorylated Akt, we pre-incubated the cells with inhibitors of PI3K (wortmannin, 0.1 μM), mTOR (rapamycin 0.1 μM) or a direct Akt ½ inhibitor (trifluoroacetate salt hydrate, 1 μM), all added 1 hr before the treatment with compounds A or B.
# Cells were immunostained for MBP and after 48 h treatment with compound A or B the cells underwent morphology changes indicative of cell differentiation that included the generation of multiple cell processes and development of membranous structures.
# [3] = test system: tg[Plp:EGFP] zebrafish embryos; test: Oligodendrocyte development in tg[Plp:EGFP] zebrafish embryos; assay type: in vivo; settings: 1, 10 and 100 nM from 24 hpf, analysed at 72 hpf
# Procedure: Transgenic-Proteolipid protein-enhanced green fluorescence protein (tg[plp:EGFP]) zebrafish was raised and maintained (Yoshida and Macklin, J. Neurosci Res, 81:1, 2005). Embryos were collected and staged by hour post fertilization (hpf). Compounds were added at 24 hpf stage at a concentration of 10 nM, 100 nM and 1 μM. After 48 hrs (72 hpf stage), zebrafish embryos were anesthetized in 0.02% tricaine, fixed in 4% paraformaldehyde, and washed in phosphate buffered saline (PBS). After treating with 10% Triton X-100 for 30 minutes, embryos were washed in PBS and blocked with 3% goat serum. Embryos were then incubated at 4° C. overnight with FITC-conjugated goat anti-GFP antibody (Abcam, Cambridge, Mass.) at a concentration of 1:1000. After several washes with PBS, the embryos were embedded in 100% glycerol and visualized on a Leica SP5 confocal microscope.
# Embryos from transgenic-Plp-EGFP (tg[Plp:EGFP]) zebrafish were treated starting at 24 hours post fertilization (hpf) with compounds A, A-7 or B (1, 10 and 100 nM) or vehicle (DMSO). At 72 hpf effective treatments were analyzed by confocal microscopy after fixation and EGFP immunostaining of selected positive compounds.
# [4] = Detection of small molecules in blood plasma and brain tissue by mass spectrometry; settings: for blood plasma level, average / brain level, average: 4 mice; for blood plasma level, average / brain level, average / Biological sample concentration (nM), Brain / Biological sample concentration (nM), Plasma: 100 mg/kg i.p., two doses in 5 days; for crossing of the blood brain barrier: two I.P. doses in a five day-term
# Procedure: The signal was optimized for each compound for positive or negative ionization by ESI (Electrospray ionization). A standard curve what made with pure compound solutions in DMSO up to 10 ng/ml. A MS2 scan was used to identify the progenitor ion and a product ion analysis was used to identify the best fragment for analysis and to optimize the collision energy. […] Samples were precipitated in 3 volumes of methanol with internal standard, centrifuged, and filtered. Filtered samples were analyzed by LC/MS/MS using either an Agilent 6410 mass spectrometer coupled with an Agilent 1200 HPLC and a CTC PAL chilled autosampler, all controlled by MassHunter software (Agilent), or an AB12000 mass spectrometer coupled with an Agilent 1100 HPLC and a CTC PAL chilled autosampler, all controlled by Analyst software (ABI). After separation on a C18 reverse phase HPLC column (Agilent, Waters, or equivalent) using an acetonitrile-water gradient system, peaks were analyzed by mass spectrometry (MS) using ESI ionization in MRM (Multiple Reaction Monitoring) mode.
# 4 mice per condition were injected i.p. (100 mg/kg), following the same experimental paradigm performed for the tissue analysis (two doses m a 5 days time).
# Solubility = assay type: physicochemical
# Hydrophobicity = assay type: physicochemical
SMILES,BrdU positive oligodendrocytes versus total cells [1],Akt phosphorylation (Akt),effect of Akt inhibitor on compound-induced differentiation [2],effect of PI3K inhibition on compound-induced oligodendrocyte precursor maturation [2],number of oligodendrocyte progenitor cells and fluorescence intensity in embryos [3],"blood plasma level, average [4] [nM]","brain level, average [4] [nM]","Biological sample concentration (nM), Brain ([4]; Sample No. 1) [nM]","Biological sample concentration (nM), Plasma ([4]; Sample No. 1) [nM]","Biological sample concentration (nM), Brain ([4]; Sample No. 2) [nM]","Biological sample concentration (nM), Plasma ([4]; Sample No. 2)","Biological sample concentration (nM), Brain ([4]; Sample No. 3) [nM]","Biological sample concentration (nM), Plasma ([4]; Sample No. 3) [nM]","Biological sample concentration (nM), Brain ([4]; Sample No. 4) [nM]","Biological sample concentration (nM), Plasma ([4]; Sample No. 4) [nM]",crossing of the blood brain barrier [4],solubility (Solubility),hydrophobicity (Hydrophobicity),effect of mTOR inhibition on compound-induced oligodendrocyte precursor maturation ([2]; rapamycin 0.1 μM added 1 hr before)
"CCS(=O)(=O)N1CCN(C(=O)COc2ccc(-c3ccccc3)cc2)CC1 [Compound A, 1-[(4-biphenylyloxy)acetyl]-4-(ethylsulfonyl)piperazine]",29.2±4.0,clearly detected,completely blocked,did not block,clear increase; also recorded: increased accumulation of oligodendrocytes and enhanced differentiation,131.3,9.2,4.6,90,14.7,149 nM,13.2,129,4.3,157,effectively crossed the blood brain barrier,–,–,–
"CC(C)N1CCN(C(=O)COc2ccc(-c3ccccc3)cc2)CC1 [Compound A-7, 1-(Biphenyl-4-yloxy)acetyl-4-isopropylpiperazine]",–,–,–,–,clear increase; also recorded: increased accumulation of oligodendrocytes and enhanced differentiation,9.2,13.5,16.6,4.2,16.8,5.3 L nM,4.21,–,6.2,3.6,effectively crossed the blood brain barrier,high,high,–
"O=[N+]([O-])c1ccc(F)c(NS(=O)(=O)c2ccc(F)cc2)c1 [Compound B, 4-fluoro-N-(2-fluoro-5-nitrophenyl)benzenesulfonamide]",27.6±6.7,clearly detected,completely blocked,did not block,–,–,–,–,–,–,–,–,–,–,–,–,–,–,totally avoided
